What was measured:
Factor Xa = biological target: T1, Factor Xa (Homo sapiens, UniProt P00742); assay: Dose response assay for protease inhibitors: Factor Xa (FXIa fold selectivity); assay type: biochemical; settings: fold selectivity for FXIa over Factor Xa
T1 construct: Factor Xa; 0.2 μM in 50% glycerol (9.2 μg/mL)
Description: (§1) • Assay buffer: 20 mM Hepes, pH 7.4; 150 mM NaCl; 0.02% Tween 20 • Compounds: 10 mM stocks in DMSO • Substrate: 20 mM Glp-Pro-Arg-AMC, 25 mg/2.3 mL H2O (store at +4° C.) [Factor XIa, thrombin, and trypsin] • 20 mM Pro-Phe-Arg-AMC (Bachem I-1295), 25 mg/2.2 mL H2O (store at +4° C.) [Factor Xa] • Enzyme: Factor XIa; 0.25 μM in 50% glycerol (20 μg/mL) • Trypsin; 0.2 μM in 50% glycerol (4.8 μg/mL) • Thrombin; 0.2 μM in 50% glycerol (7.34 μg/mL) • Factor Xa; 0.2 μM in 50% glycerol (9.2 μg/mL) • These stocks are aliquoted ([…]) and stored at −20° C. Methods: • 1. Dilute the substrate to 100 μM in assay buffer (30 μL/6 mL). The enzyme is diluted to 0.5 nM just prior to use (12 μL/6 mL for Factor XIa; 15 μL/6 mL for all of the rest.) • 2. Pipette 50 μL of substrate into each well of the 96 well (12×8) microtiter plate. (Column 1 is used as the 100% activity control and receives no compound, and Column 12 is the blank and receives no enzyme.) Add an additional 46 μL to column 2. • 3. Pipette 4 μL of each compound into the appropriate well in column 2 of the plate (unknowns assayed in triplicate, standard assayed in duplicate). The final compound concentration will be 1/50th of the stock. • 4. Serially two-fold dilute the compound by mixing the sample in column 2, removing 50 μL to the next well (column 3), mix and remove to column 4, etc. until column 11. After mixing column 11, remove 50 μL and discard. • 5. Pipette 50 μL of buffer into column 12. Initiate the reaction by adding 50 μL of enzyme solution to each well of columns 1-11 as rapidly as possible. • 6. Read the plate in a spectrophotometer (SpectraMax) at 30° C., wherein each well is measured every 60 s for 30 min. For Factor Xa assays, each well is measured every 1 min for a total of 60 min. • 7. For Factor XIa assays, the compounds are assayed, in duplicate, at 3 different starting concentrations, 20, 2, and 0.2 μM; 1:10, 1:100, and 1:1000 dil'n of 10 mM stock. All data sets are combined for graphing and data fitting. • 8. Data can be used both for estimation of IC50 and for estimation of Kon.

Trypsin = assay: Dose response assay for protease inhibitors: trypsin (FXIa fold selectivity); assay type: biochemical; settings: fold selectivity for FXIa over trypsin
Description: as §1

human Factor XIa = biological target: T2, human Factor XIa (Homo sapiens, UniProt P03951); assay: Factor XIa enzyme inhibition assay (IC50, purified enzyme); assay type: biochemical; settings: purified enzyme 0.25 nM, substrate 50 μM; read-out: Potency hFXIa IC50
T2 construct: Enzyme: Factor XIa; 0.25 μM in 50% glycerol (20 μg/mL)
Description: as §1
Potential inhibitors of Factor XIa were evaluated using the following assay.
S-2366, pyroGlu-Pro-Arg-7-methylaminocourin (AMC), available from CPC Scientific, Inc., is based on the substrate pyro-Glu-Pro-Arg-pNA, available from Diapharma Group, Inc. (Columbus, Ohio), where the p-nitroanaline group is replaced with 7-methylaminocoumarin (AMC).
The final concentration of the substrate in the assay was 50 μM, and the final concentration of the enzyme was 0.25 nM. Inhibitors were tested by serial dilution over an appropriate range to yield a dose response curve for determination of the inhibitors' IC50 value. The assay mixture was read every minute for 30 minutes in order to generate progress curves. The plates were read in a Spectramax m5 Multimode Plate Reader (Molecular Devices LLC, Sunnyvale, Calif.). Dose response curves were fit to Equation 1 below in which A is the maximum inhibition, B is the minimum inhibition, C is the IC50, and D is the Hill coefficient. [(A−B)/(1+(X/C)^D)]+B (Equation 1)

Thrombin = biological target: T3, Thrombin (Homo sapiens, UniProt P00734); assay: Dose response assay for protease inhibitors: thrombin (FXIa fold selectivity); assay type: biochemical; settings: fold selectivity for FXIa over thrombin
T3 construct: Thrombin; 0.2 μM in 50% glycerol (7.34 μg/mL)
Description: as §1

[1] = β-Lactam stability in rat plasma; assay type: in vitro ADME; settings: normal rat plasma, room temperature; read-out: Rat Plasma Stability (T1/2; min)
Description: Normal rat plasma, stored at −80° C.
• 1. Place 6 μL of each compound into 0.5 mL microcentrifuge tubes or 96-well U-bottom, polypropylene microtiter plate • 2. Place 40 μL of acetonitrile (AcN) into 0.5 mL microcentrifuge tubes labeled 1-9 • 3. Add 114 μL of plasma to each compound • 4. Sample 10 μL of compound/plasma into AcN at 2, 10, 20, 30, 60, 90, 120, 240, and 480 min of incubation at room temperature • 5. Mix each time point after adding sample and place on ice. • 6. Centrifuge time points (12,000 rpm, 3 min), remove 15 μL of the supernatant and mix with 15 μL 0.1% TFA in a V-bottom microtiter plate. • 7. Place microtiter plate in autosampler of HPLC and analyze on Restek Pinnacle C18 column (2.1×100 mm). • 8. Generate extracted ion chromatogram for parent compound and parent compound+18 (H2O). Integrate extracted ion chromatograms (EIC) and plot % total peak area for parent and adduct versus time. Fit to a model of single phase exponential decay [Y=A0*exp(−k*x)+C]. T½ is equal to ln(2)/k.

T2 sequence (P03951 388-625 limits assumed): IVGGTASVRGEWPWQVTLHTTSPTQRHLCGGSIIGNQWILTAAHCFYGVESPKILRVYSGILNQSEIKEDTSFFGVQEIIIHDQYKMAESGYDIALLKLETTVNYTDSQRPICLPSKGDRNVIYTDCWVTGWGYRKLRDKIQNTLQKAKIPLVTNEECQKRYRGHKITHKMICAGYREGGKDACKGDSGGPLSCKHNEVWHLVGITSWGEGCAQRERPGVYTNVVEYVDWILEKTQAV
T2 sequence (P03951 19-387 partner limits assumed): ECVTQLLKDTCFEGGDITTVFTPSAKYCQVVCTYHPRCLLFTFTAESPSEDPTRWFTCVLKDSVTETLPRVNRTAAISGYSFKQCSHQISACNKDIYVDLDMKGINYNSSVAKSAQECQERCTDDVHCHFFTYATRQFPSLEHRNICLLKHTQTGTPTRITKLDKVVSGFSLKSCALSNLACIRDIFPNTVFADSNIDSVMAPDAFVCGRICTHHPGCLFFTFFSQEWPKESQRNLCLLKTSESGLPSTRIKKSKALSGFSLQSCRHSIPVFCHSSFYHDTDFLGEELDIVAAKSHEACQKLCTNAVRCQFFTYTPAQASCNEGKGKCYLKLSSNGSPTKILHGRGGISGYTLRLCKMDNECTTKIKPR
T1 sequence (P00742 235-488 limits assumed): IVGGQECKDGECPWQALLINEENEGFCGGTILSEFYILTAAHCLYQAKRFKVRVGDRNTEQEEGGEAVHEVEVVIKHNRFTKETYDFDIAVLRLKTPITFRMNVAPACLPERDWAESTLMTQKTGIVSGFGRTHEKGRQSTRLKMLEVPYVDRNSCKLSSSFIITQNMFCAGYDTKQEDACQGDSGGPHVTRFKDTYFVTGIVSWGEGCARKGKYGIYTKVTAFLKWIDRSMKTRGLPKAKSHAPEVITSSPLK
T1 sequence (P00742 41-179 partner limits assumed): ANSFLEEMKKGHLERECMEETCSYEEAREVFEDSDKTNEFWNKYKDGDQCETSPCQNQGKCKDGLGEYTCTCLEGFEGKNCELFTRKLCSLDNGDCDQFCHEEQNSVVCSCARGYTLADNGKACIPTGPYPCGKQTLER

SMILES	FXIa Fold Selectivity FXa (Factor Xa)	FXIa Fold Selectivity Trypsin (Trypsin)	IC50 (human Factor XIa) [nM]	FXIa Fold Selectivity Thrombin (Thrombin)	half-life [1] [min]
C[C@@H](NC(=O)N1C(=O)[C@H](Cc2ccnc(N)c2)[C@H]1C(=O)OCc1ccccc1)c1ccccc1 [Example 1]	G (“G” indicates 1-500)	G (“G” indicates 1-500)	< 10	G (“G” indicates 1-500)	–
COC(=O)[C@@H]1[C@@H](Cc2ccc(Cl)s2)C(=O)N1C(=O)N[C@H](C)c1ccccc1 [Example 2]	–	G (“G” indicates 1-500)	> 1000	G (“G” indicates 1-500)	> 100
NC(=O)[C@@H]1[C@@H](Cc2ccnc(N)c2)C(=O)N1C(=O)NC(c1ccccc1)c1ccccc1 [Example 22]	I (“I” indicates >1000)	I (“I” indicates >1000)	< 10	H (“H” indicates 500-1000)	> 100
Nc1ncc(C[C@H]2C(=O)N(C(=O)NC(c3ccccc3)c3ccccc3)[C@@H]2C(=O)O)s1 [Example 23]	G (“G” indicates 1-500)	G (“G” indicates 1-500)	100 to 1000	G (“G” indicates 1-500)	–
C[C@@H](NC(=O)N1C(=O)[C@H](Cc2cnc(N)s2)[C@H]1C(=O)O)c1ccccc1 [Example 24]	–	G (“G” indicates 1-500)	> 1000	G (“G” indicates 1-500)	–
Nc1cc(CC[C@H]2C(=O)N(C(=O)NC(c3ccccc3)c3ccccc3)[C@@H]2C(=O)O)ccn1 [Example 25]	G (“G” indicates 1-500)	G (“G” indicates 1-500)	100 to 1000	G (“G” indicates 1-500)	–
C[C@@H](NC(=O)N1C(=O)[C@H](Cc2ccnc(N)c2)[C@H]1C(N)=O)c1ccccc1 [Example 26]	H (“H” indicates 500-1000)	I (“I” indicates >1000)	< 10	I (“I” indicates >1000)	< 100
Nc1cc(C[C@H]2C(=O)N(C(=O)NC(c3ccccc3)c3ccccc3)[C@@H]2Oc2ccccc2)ccn1 [Example 27]	H (“H” indicates 500-1000)	G (“G” indicates 1-500)	10 to 100	G (“G” indicates 1-500)	< 100
N#C[C@@H]1[C@@H](Cc2ccnc(N)c2)C(=O)N1C(=O)NC(c1ccccc1)c1ccccc1 [Example 28]	I (“I” indicates >1000)	G (“G” indicates 1-500)	10 to 100	I (“I” indicates >1000)	< 100
COc1cccc([C@@H](C)NC(=O)N2C(=O)[C@H](Cc3ccnc(N)c3)[C@H]2C(=O)O)c1 [Example 29]	I (“I” indicates >1000)	G (“G” indicates 1-500)	< 10	I (“I” indicates >1000)	> 100
Nc1cc(C[C@H]2C(=O)N(C(=O)NCC(c3ccccc3)c3ccccc3)[C@@H]2C(=O)O)ccn1 [Example 31]	G (“G” indicates 1-500)	G (“G” indicates 1-500)	100 to 1000	G (“G” indicates 1-500)	> 100
CC(C)[C@@H](C)NC(=O)N1C(=O)[C@H](Cc2ccnc(N)c2)[C@H]1C(=O)O [Example 32]	G (“G” indicates 1-500)	G (“G” indicates 1-500)	10 to 100	G (“G” indicates 1-500)	> 100
CCO[C@@H]1[C@@H](Cc2ccnc(N)c2)C(=O)N1C(=O)NC(c1ccccc1)c1ccccc1 [Example 33]	F (“F” indicates <1)	G (“G” indicates 1-500)	> 1000	G (“G” indicates 1-500)	> 100
C[C@@H](NC(=O)N1C(=O)[C@H](Cc2ccnc(N)c2)[C@H]1C#N)c1ccccc1 [Example 34]	I (“I” indicates >1000)	G (“G” indicates 1-500)	< 10	I (“I” indicates >1000)	< 100
CS(=O)(=O)[C@@H]1[C@@H](Cc2ccnc(N)c2)C(=O)N1C(=O)NC(c1ccccc1)c1ccccc1 [Example 35]	G (“G” indicates 1-500)	G (“G” indicates 1-500)	100 to 1000	G (“G” indicates 1-500)	< 100
CC[C@@H](NC(=O)N1C(=O)[C@H](Cc2ccnc(N)c2)[C@H]1C(=O)O)c1ccccc1 [Example 36]	I (“I” indicates >1000)	G (“G” indicates 1-500)	< 10	I (“I” indicates >1000)	–
C[C@@H](NC(=O)N1C(=O)[C@H](Cc2ccnc(N)c2)[C@H]1C(=O)O)c1ccc(F)cc1 [Example 37]	H (“H” indicates 500-1000)	I (“I” indicates >1000)	< 10	I (“I” indicates >1000)	–
C[C@@H](NC(=O)N1C(=O)[C@H](Cc2ccnc(N)c2)[C@H]1S(C)(=O)=O)c1ccccc1 [Example 39]	G (“G” indicates 1-500)	G (“G” indicates 1-500)	100 to 1000	G (“G” indicates 1-500)	< 100
CCOC(=O)[C@@H]1[C@@H](Cc2ccnc(N)c2)C(=O)N1C(=O)NC(c1ccccc1)c1ccccc1 [Example 46]	I (“I” indicates >1000)	G (“G” indicates 1-500)	10 to 100	G (“G” indicates 1-500)	–
C[C@@H](NC(=O)N1C(=O)[C@H](Cc2ccnc(N)c2)[C@H]1C(=O)O)c1cccnc1 [Example 54]	H (“H” indicates 500-1000)	G (“G” indicates 1-500)	10 to 100	I (“I” indicates >1000)	–
CC(=O)OCOC(=O)[C@@H]1[C@@H](Cc2ccnc(NC(=O)OCOC(=O)C(C)C)c2)C(=O)N1C(=O)N[C@H](C)c1ccc2c(c1)OC(F)(F)O2 [Example 180]	–	–	10 to 100	–	< 100

— US11198673B2, “Therapeutic compounds and compositions” (eXIthera Pharmaceuticals, Inc., priority 2014, dated 2021)
